Consider five molecules from patent publication US11667621B2, “Antiestrogen compounds” (STEVENS INSTITUTE OF TECHNOLOGY, priority 2018, dated 2023).

The target of experiment [1] is T1, full length human estrogen receptor a (Homo sapiens, UniProt P03372).
T1 construct: purified, full-length human estrogen receptor a from Invitrogen; purchased Invitrogen
T1 sequence (P03372 1-595): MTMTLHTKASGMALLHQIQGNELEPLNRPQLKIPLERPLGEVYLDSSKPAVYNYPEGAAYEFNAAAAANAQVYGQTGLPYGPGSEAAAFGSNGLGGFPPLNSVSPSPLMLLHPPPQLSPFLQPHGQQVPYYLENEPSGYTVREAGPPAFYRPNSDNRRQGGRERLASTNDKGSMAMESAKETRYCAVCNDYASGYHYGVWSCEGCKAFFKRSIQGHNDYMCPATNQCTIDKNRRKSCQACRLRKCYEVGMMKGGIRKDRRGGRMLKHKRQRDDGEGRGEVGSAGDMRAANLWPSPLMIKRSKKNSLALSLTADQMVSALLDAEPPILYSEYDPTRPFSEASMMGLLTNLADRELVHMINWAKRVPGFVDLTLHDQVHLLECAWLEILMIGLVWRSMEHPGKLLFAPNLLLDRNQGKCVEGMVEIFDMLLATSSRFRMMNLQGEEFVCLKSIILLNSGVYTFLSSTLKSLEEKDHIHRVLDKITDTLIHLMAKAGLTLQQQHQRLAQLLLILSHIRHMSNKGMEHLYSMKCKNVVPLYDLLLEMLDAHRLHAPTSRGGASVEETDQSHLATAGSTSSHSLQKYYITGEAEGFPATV
Nature of the experiment: Competitive radiometric binding assay (RBA), tritiated estradiol tracer. The note with it: relative to estradiol = 100; average SD of 2-3 determinations. The method, then:
Tritiated estradiol was obtained from Perkin Elmer and purified, full-length human estrogen receptor a from Invitrogen.
Competitive radiometric binding assays (RBA) were performed on 96-well microtiter filter plates (Millipore), using full length human estrogen receptor a, with tritiated estradiol as tracer, as previously described (Carlson K E, Choi I, Gee A, Katzenellenbogen B S, Katzenellenbogen J A. Altered ligand binding properties and enhanced stability of a constitutively active estrogen receptor: evidence that an open pocket conformation is required for ligand interaction. Biochemistry 1997, 36(48), 14897-14905). After incubation on ice for 18-24 h, ERα-bound tracer was absorbed onto hydroxyapatite (BioRad), washed with buffer, and measured by scintillation counting. RBA values are the average SD of 2-3 determinations.

Experiment [2] in a line: Cell proliferation assay (WST-1), 6-day exposure. The experiment is classed as cell-based. The note with it: 144 h, read-out: Antiproliferation IC50. The method, then: Cell proliferation assay: WST-1 assay (Roche, Basel, Switzerland) was used to quantify cell viability after a 6-day exposure to compounds, as described in Gong et al. Mol. Cell. Endocrinol. 2016, 437, 190-200. Absorbance was measured at 450 nm using a VICTOR X5 PerkinElmer 2030 Multilabel Plate Reader, and cell proliferation values represent signal from compound-treated samples relative to vehicle-treated controls. All assays were performed in triplicate, and the values shown are the average SD of 2-3 independent experiments.
(Formazan colour is commonly taken as a measure of viable cells.)

Experiment [3] deals with D538G cl. 65. The experiment is described as follows: Cell proliferation assay (Resazurin). It is filed as cell-based. Here is the method: (§1) Cell proliferation assays were performed to determine the efficacy of the compounds at inhibiting ER or its mutants' ability at promoting cell proliferation.
(§2) Cells were plated at 1500 cells/well into 96-well culture plates in regular media, treated with the indicated doses of the compounds or Fulvestrant the next day and incubated in a humidified incubator with 5% CO2 at 37° C. They were assayed for cell proliferation at Day 0, 3, 5 and 7 using the Resazurin reagent (R&D Systems), which upon addition, culture plates were incubated at 37° C. incubator for 4 hours before their fluorescence were read at 560 nm excitation and 590 nm emission wavelengths with a microtiter plate reader (Molecular Devices).
(Resazurin is reduced to fluorescent resorufin, in cell work by metabolically active cells.)

Experiment [4] has as its system MCF7. Nature of the experiment: Cell proliferation assay (Resazurin). It is filed as cell-based. Conditions: Homo sapiens. Here is the method:
as §1, §2

In experiment [5] the test system is Y537S cl. 24. Nature of the experiment: Cell proliferation assay (Resazurin). The experiment is classed as cell-based. Here is the method: as §1, §2
Experiment [6] deals with T2, HA-ERα Y537S (Homo sapiens, UniProt P03372, Y537S).
T2 construct: HA; expressed in transfected cells
T2 sequence (P03372 1-595 Y537S): T1 sequence (P03372 1-595) with Y537S
The experiment is described as follows: Luciferase assay, overexpressed ER (3×-ERE-TATA-Luciferase reporter). The experiment is classed as cell-based. The method, then:
(§3) Luciferase assays were performed to determine the efficacy of the example compounds at inhibiting ER or its mutants' ability to activate transcription of genes.
(§4) Cells were plated at a density of 0.15×10^6 per well of 24 well plates one day prior to transfection. Cells were transfected with 125 ng (per well) of HA-ERα wild type or mutants, 315 ng (per well) of 3×-ERE-TATA-Luciferase reporter and 50 ng (per well) of pRL-TK Renilla Luciferase plasmid, using Xtremegene (Roche). The cells were treated with the various compounds or Fulvestrant at the indicated doses a day after transfection for 24 hours and luciferase activities were determined using the Dual-Luciferase® Reporter Assay System (Promega) according to manufacturer's instructions. Luciferase bioluminescence measurements were performed with the Veritas™ Microplate Luminometer (Promega). All experiments were conducted in triplicate and the Firefly luciferase activity was normalized with the Renilla luciferase activity of each sample.

The target of experiment [7] is T3, HA-ERα wild type (Homo sapiens, UniProt P03372).
T3 construct: HA; expressed in transfected cells
T3 sequence (P03372 1-595): T1 sequence (P03372 1-595)
Described as above. It is filed as cell-based. Here is the method: as §3, §4

Experiment [8] has as its target T4, HA-ERα L536R (Homo sapiens, UniProt P03372, L536R).
T4 construct: HA; expressed in transfected cells
T4 sequence (P03372 1-595 L536R): T1 sequence (P03372 1-595) with L536R
The experiment is described as above. The experiment is classed as cell-based. The method, then:
as §3, §4

Experiment [9] concerns the target T5, HA-ERα D538G (Homo sapiens, UniProt P03372, D538G).
T5 construct: HA; expressed in transfected cells
T5 sequence (P03372 1-595 D538G): T1 sequence (P03372 1-595) with D538G
The experiment is described as above. It is filed as cell-based. Here is the method: as §3, §4

[10] abbreviates: compound concentration 1 μM, 24 hours.

The structures appear in SMILES notation. Changes are numbered by the printed parent chain. pIC50: −log10 of the molar value.

On to `CC(C)C[C@H](NC(=O)OC(C)(C)C)C(=O)NCCCCOc1ccc(C(=C2C3CC4CC(C3)CC2C4)c2ccc(O)cc2)cc1` [Example 2, (S)-tert-Butyl (1-((4-(4-(adamantan-2-ylidene(4-hydroxyphenyl)methyl)-phenoxy)butyl)amino)-4-methyl-1-oxopentan-2-yl)carbamate], for which the “RBA (estradiol = 100)” value in experiment [1] is on record as 14 ± 1. Further, the pIC50 in [2] is 7.44.
On the same counts, the results for `O=C(NCCCOc1ccc(C(=C2C3CC4CC(C3)CC2C4)c2ccc(O)cc2)cc1)C12CC3CC(CC(C3)C1)C2` [Example 5, N-(3-(4-(Adamantan-2-ylidene(4-hydroxyphenyl)methyl)phenoxy)propyl)-adamantane-1-carboxamide] are 26 ± 6 and 8.05.
Consider `O=C(NCCCCOc1ccc(Oc2c(-c3ccc(O)cc3)sc3cc(O)ccc23)cc1)[C@H]1CC[C@H](C(F)(F)F)CC1` [Example 17, (trans)-N-(4-(4-((6-Hydroxy-2-(4-hydroxyphenyl)benzo[b]thiophen-3-yl)oxy)phenoxy)butyl)-4-(trifluoromethyl)cyclohexanecarboxamide], for which the IC90 came to 315 nM in [3]; 22.1 nM in experiment [4]; 304 nM in [5]; 464 nM in [6] (luciferase assay, Table 4); 19 nM in experiment [7] (luciferase assay, Table 4); 124 nM in experiment [8] (luciferase assay, Table 4). This molecule also returned an IC90 in experiment [9] (luciferase assay, Table 4) of 175 nM. Moreover, the inhibition at 1 µM in [6] (setting [10]) was determined as 95%; in experiment [7] (compound concentration 1 μM, 24 hours, read-out: Overexpressed ER (% Inhibition) WT), 96%; in [8] (setting [10]) it was 94%; in [9] (setting [10]), 95%.
Consider `O=C(NCCOc1ccc(C(=C2C3CC4CC(C3)CC2C4)c2ccc(O)cc2)cc1)C12CC3CC(CC(C3)C1)C2` [Example 4, N-(2-(4-(Adamantan-2-ylidene(4-hydroxyphenyl)methyl)phenoxy)ethyl)-adamantane-1-carboxamide], for which, in experiment [1], the “RBA (estradiol = 100)” value is 21 ± 6. Besides, the pIC50 in experiment [2] was 7.77.
In the case of `CC(C)(C)OC(=O)N[C@@H](Cc1ccccc1)C(=O)NCCCCOc1ccc(C(=C2C3CC4CC(C3)CC2C4)c2ccc(O)cc2)cc1` [Example 3, (S)-tert-Butyl(1-((4-(4-(adamantan-2-ylidene(4-hydroxyphenyl)methyl)-phenoxy)butyl)amino)-1-oxo-3-phenylpropan-2-yl)carbamate], the “RBA (estradiol = 100)” value in experiment [1] came to 14 ± 4. In experiment [2], the pIC50 was 8.15.

Usually IC90 stands for the concentration at which the effect reaches the 90% level. High values mean a need for much substance, low ones an effect from little substance. As usually defined, the inhibition is the drop in the measured response relative to a control, in per cent.
